In patent US7514257B2, “Zinc finger transcription factor differentiation proteins” (ToolGen, Inc., priority 2001, dated 2009):

What was measured:
human insulin gene [1] = assay: Insulin gene expression in stably transfected 293 cells (DNA microarray); format: cell-based; conditions: stably transfected human 293 cells
Source text: We stably transfected nucleic acids encoding chimeric zinc finger proteins in human 293 cell lines, and analyzed transformed cells using DNA microarray experiments to characterize genes regulated by each chimeric zinc finger protein (see FIGS. 4, 5, and 9). We have identified a chimeric zinc finger protein (08_D04-p65) that increases the expression of human insulin gene more than 60 fold.
Nucleic acids encoding zinc finger proteins were stably introduced into FlpTRex-293 cell lines (Invitrogen) essentially as described in the manufacturer's protocols. Briefly, the HindIII-XhoI fragment from the pLFD-p65 or pLFD-Kid vectors was subcloned into pcDNA5/FRT/TO (Invitrogen Calif.). This fragment includes a sequence encoding the zinc finger proteins. Resulting plasmids were cotransfected into FlpTRex-293 cells with pOG44 (Invitrogen). Stable integrants that express ZFP-TFs upon doxycycline induction were obtained.
DNA microarrays containing 7458 human EST clones were obtained from Genomictree (Korea). FlpTRex-293 cells stably expressing ZFP-TFs were grown with (+Dox) or without Dox) 1 μg/ml Doxycycline for 48 hours. Total RNA was prepared from each sample. RNA from the −Dox sample was used as a reference (Cy3), and +Dox as the experimental sample (Cy5). […] Spots with sum of median less than 500 were colored red and not analyzed.

human insulin gene [2] = assay: Insulin gene expression in transiently transfected HeLa cells; format: cell-based
Source text: To test whether 08_D04-p65 can induce insulin gene expression in different human cell lines, we transiently transfected a nucleic acid encoding 08_D04-p65 into HeLa cells. Expression of the nucleic acid in HeLa cells caused a 80 fold increase in expression of the insulin gene.
Nucleic acids encoding certain zinc finger proteins were also expressed in HeLa cells. pLFD-p65 containing 08-D04 ZFP was transiently transfected into HeLa cells using LIPOFECTAMINE™ 2000 (Invitrogen).

## 08_D04-p65: ZFP RSHR-RDHT-VSSR with p65 activation domain (SEQ ID NO:6)
Human insulin gene [1]
  increase in expression of human insulin gene: more than 60 fold
Human insulin gene [2]
  increase in expression of the insulin gene: 80 fold
